Reference: patent publication US20160130278A1 (TAISHO PHARMACEUTICAL CO., LTD, priority 2013, published 2016)

Biological target: T1, human type 1 glycine transporter (GlyT1) (Homo sapiens, UniProt P48067)
T1 construct: T98G cells (glioma cells) expressing human type 1 glycine transporter (GlyT1) were used
T1 sequence (P48067 1-706): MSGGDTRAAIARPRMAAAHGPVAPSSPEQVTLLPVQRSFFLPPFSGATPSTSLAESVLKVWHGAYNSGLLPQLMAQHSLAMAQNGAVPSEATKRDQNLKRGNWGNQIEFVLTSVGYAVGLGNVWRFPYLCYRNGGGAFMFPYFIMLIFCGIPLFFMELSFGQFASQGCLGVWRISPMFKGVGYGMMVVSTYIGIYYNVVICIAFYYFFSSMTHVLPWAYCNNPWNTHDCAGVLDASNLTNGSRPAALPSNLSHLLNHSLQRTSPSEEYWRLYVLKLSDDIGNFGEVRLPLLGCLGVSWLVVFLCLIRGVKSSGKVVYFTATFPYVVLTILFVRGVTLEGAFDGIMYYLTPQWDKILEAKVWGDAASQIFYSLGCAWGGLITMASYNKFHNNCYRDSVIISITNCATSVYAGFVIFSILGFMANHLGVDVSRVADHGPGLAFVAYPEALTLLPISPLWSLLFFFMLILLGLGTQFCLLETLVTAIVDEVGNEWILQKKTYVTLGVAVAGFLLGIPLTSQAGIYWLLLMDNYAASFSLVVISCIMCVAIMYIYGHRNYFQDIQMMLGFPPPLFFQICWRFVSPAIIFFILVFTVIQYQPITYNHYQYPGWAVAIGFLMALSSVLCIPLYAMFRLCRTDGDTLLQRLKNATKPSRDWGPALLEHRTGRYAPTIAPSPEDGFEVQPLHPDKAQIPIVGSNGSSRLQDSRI
Experiment: Glycine uptake inhibition experiment ([3H]glycine uptake)
Assay type: cell-based
Details: GlyT1
Summary of the method: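 T98G glioma cells expressing human GlyT1 were pretreated 10 min with compound in HEPES buffer pH 7.4 (0.2% BSA), then incubated with compound plus 250 nM final [3H]glycine for 15 min at room temperature. Intracellular radioactivity was counted after NaOH lysis; 10 μM ALX5407 defined non-specific uptake. IC50 came from 10^−9–10^−5 M curves.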

| Compound | IC50 [nM] |
| --- | --- |
| O=C(NC(c1cccnc1)[C@]1(O)CC[C@@H](F)CC1)c1nccc(C(F)(F)F)c1Cl (single isomer, unassigned) [Compound 266, 3-chloro-N-[(cis-4-fluoro-1-hydroxycyclohexyl)(pyridin-3-yl)methyl]-4-(trifluoromethyl)pyridine-2-carboxamide] | 1600 |
| Cc1ccccc1C(=O)NC(c1cccc(F)c1Cl)[C@]1(O)CC[C@@H](F)CC1 (single isomer, unassigned) [Compound 267, N-[(2-chloro-3-fluorophenyl)(cis-4-fluoro-1-hydroxycyclohexyl)methyl]-2-methylbenzamide] | 1900 |
| O=C(NC(c1cccc(F)c1Cl)[C@]1(O)CC[C@@H](F)CC1)c1cccnc1-n1cccn1 (single isomer, unassigned) [Compound 268, N-[(2-chloro-3-fluorophenyl)(cis-4-fluoro-1-hydroxycyclohexyl)methyl]-2-(1H-pyrazol-1-yl)pyridine-3-carboxamide] | 1700 |
| Cc1cc(C(=O)NC(c2cccc(F)c2Cl)[C@]2(O)CC[C@@H](F)CC2)c2cnn(C(C)C)c2n1 (single isomer, unassigned) [Compound 269, N-[(2-chloro-3-fluorophenyl)(cis-4-fluoro-1-hydroxycyclohexyl)methyl]-6-methyl-1-(propan-2-yl)-1H-pyrazolo[3,4-b]pyridine-4-carboxamide] | 1700 |
| O=C(NC(c1cccc(F)c1Cl)[C@]1(O)CC[C@@H](F)CC1)c1ccccc1-n1cnnn1 (single isomer, unassigned) [Compound 270, N-[(2-chloro-3-fluorophenyl)(cis-4-fluoro-1-hydroxycyclohexyl)methyl]-2-(1H-tetrazol-1-yl)benzamide] | 2400 |
| O=C(NC(c1cccc(F)c1Cl)[C@]1(O)CC[C@@H](F)CC1)c1nsc(Cl)c1Cl (single isomer, unassigned) [Compound 271, 4,5-dichloro-N-[(2-chloro-3-fluorophenyl)(cis-4-fluoro-1-hydroxycyclohexyl)methyl]-1,2-thiazol-3-carboxamide] | 1100 |
| Cn1nc(C(F)(F)F)cc1C(=O)NC(c1cccc(F)c1Cl)[C@]1(O)CC[C@@H](F)CC1 (single isomer, unassigned) [Compound 272, N-[(2-chloro-3-fluorophenyl)(cis-4-fluoro-1-hydroxycyclohexyl)methyl]-1-methyl-3-(trifluoromethyl)-1H-pyrazole-5-carboxamide] | 2500 |
| O=C(NC(c1cccnc1Cl)[C@]1(O)CC[C@@H](F)CC1)c1nccc(C(F)(F)F)c1Cl (single isomer, unassigned) [Compound 273, 3-chloro-N-[(2-chloropyridin-3-yl)(cis-4-fluoro-1-hydroxycyclohexyl)methyl]-4-(trifluoromethyl)pyridine-2-carboxamide] | 330 |
| O=C(NC(c1cccc(Cl)n1)[C@]1(O)CC[C@@H](F)CC1)c1nccc(C(F)(F)F)c1Cl (single isomer, unassigned) [Compound 274, 3-chloro-N-[(6-chloropyridin-2-yl)(cis-4-fluoro-1-hydroxycyclohexyl)methyl]-4-(trifluoromethyl)pyridine-2-carboxamide] | 77 |
| O=C(NC(c1cccc(F)c1Cl)[C@]1(O)CC[C@@H](F)CC1)c1cccc2ccncc12 (single isomer, unassigned) [Compound 275, N-[(2-chloro-3-fluorophenyl)(cis-4-fluoro-1-hydroxycyclohexyl)methyl]isoquinoline-8-carboxamide] | 1600 |
| O=C(NC(c1cccc(F)c1Cl)[C@]1(O)CC[C@@H](F)CC1)c1ccccc1C(F)(F)F (single isomer, unassigned) [Compound 276, N-[(2-chloro-3-fluorophenyl)(cis-4-fluoro-1-hydroxycyclohexyl)methyl]-2-(trifluoromethyl)benzamide] | 1600 |
| O=C(NC(c1ccc(Cl)nc1)C1(O)CCC(F)(F)CC1)c1nccc(C(F)(F)F)c1Cl (single isomer, unassigned) [Compound 277, 3-chloro-N-[(6-chloropyridin-3-yl)(4,4-difluoro-1-hydroxycyclohexyl)methyl]-4-(trifluoromethyl)pyridine-2-carboxamide] | 640 |
| O=C(NC(c1ccc(Cl)nc1)C1(O)CCC(F)(F)CC1)c1nccc(C(F)(F)F)c1Cl (single isomer, unassigned) [Compound 278, 3-chloro-N-[(6-chloropyridin-3-yl)(4,4-difluoro-1-hydroxycyclohexyl)methyl]-4-(trifluoromethyl)pyridine-2-carboxamide] | 2700 |
| O=C(NC(c1cccc(F)c1Cl)[C@]1(O)CC[C@@H](F)CC1)c1nc(Cl)ccc1Cl (single isomer, unassigned) [Compound 279, 3,6-dichloro-N-[(2-chloro-3-fluorophenyl)(cis-4-fluoro-1-hydroxycyclohexyl)methyl]pyridine-2-carboxamide] | 3900 |
| O=C(NC(c1cccc(F)c1Cl)[C@]1(O)CC[C@@H](F)CC1)c1cc(C(F)(F)F)ncc1Cl (single isomer, unassigned) [Compound 280, 5-chloro-N-[(2-chloro-3-fluorophenyl)(cis-4-fluoro-1-hydroxycyclohexyl)methyl]-2-(trifluoromethyl)pyridine-4-carboxamide] | 150 |
| CS(=O)(=O)c1ccccc1C(=O)NC(c1cccc(F)c1Cl)[C@]1(O)CC[C@@H](F)CC1 (single isomer, unassigned) [Compound 281, N-[(2-chloro-3-fluorophenyl)(cis-4-fluoro-1-hydroxycyclohexyl)methyl]-2-(methylsulfonyl)benzamide] | 2100 |
| O=C(NC(c1cccc(F)c1Cl)[C@]1(O)CC[C@@H](F)CC1)c1ccccc1OC(F)(F)F (single isomer, unassigned) [Compound 282, N-[(2-chloro-3-flurophenyl)(cis-4-fluoro-1-hydroxycyclohexyl)methyl]-2-(trifluoromethoxy)benzamide] | 3400 |
| Cc1ccc(-n2nccn2)c(C(=O)NC(c2cccc(F)c2Cl)[C@]2(O)CC[C@@H](F)CC2)n1 (single isomer, unassigned) [Compound 283, N-[(2-chloro-3-fluorophenyl)(cis-4-fluoro-1-hydroxycyclohexyl)methyl]-6-methyl-3-(2H-1,2,3-triazol-2-yl)pyridine-2-carboxamide] | 1100 |
| Cc1ccc(-c2ncccn2)c(C(=O)NC(c2cccc(F)c2Cl)[C@]2(O)CC[C@@H](F)CC2)n1 (single isomer, unassigned) [Compound 284, N-[(2-chloro-3-fluorophenyl)(cis-4-fluoro-1-hydroxycyclohexyl)methyl]-6-methyl-3-(pyrimidin-2-yl)pyridine-2-carboxamide] | 1900 |
| O=C(NC(c1cccc(F)c1Cl)[C@]1(O)CC[C@@H](F)CC1)c1ccc(Cl)cc1-n1nccn1 (single isomer, unassigned) [Compound 285, 4-chloro-N-[(2-chloro-3-fluorophenyl)(cis-4-fluoro-1-hydroxycyclohexyl)methyl]-2-(2H-1,2,3-triazol-2-yl)benzamide] | 2000 |
| O=C(NC(c1cc(Cl)ccn1)[C@]1(O)CC[C@@H](F)CC1)c1nccc(C(F)(F)F)c1Cl (single isomer, unassigned) [Compound 286, 3-chloro-N-[(4-chloropyridin-2-yl)(cis-4-fluoro-1-hydroxycyclohexyl)methyl]-4-(trifluoromethyl)pyridine-2-carboxamide] | 140 |
| Cc1cccc(C(=O)NC(c2cccc(F)c2Cl)[C@]2(O)CC[C@@H](F)CC2)c1Cl (single isomer, unassigned) [Compound 287, 2-chloro-N-[(2-chloro-3-fluorophenyl)(cis-4-fluoro-1-hydroxycyclohexyl)methyl]-3-methylbenzamide] | 960 |
| O=C(NC(c1cccc(F)c1Cl)[C@]1(O)CC[C@@H](F)CC1)c1cccc(F)c1Cl (single isomer, unassigned) [Compound 288, 2-chloro-N-[(2-chloro-3-fluorophenyl)(cis-4-fluoro-1-hydroxycyclohexyl)methyl]-3-fluorobenzamide] | 1000 |
| COc1cccc(C(=O)NC(c2cccc(F)c2Cl)[C@]2(O)CC[C@@H](F)CC2)c1Cl (single isomer, unassigned) [Compound 289, 2-chloro-N-[(2-chloro-3-fluorophneyl)(cis-4-fluoro-1-hydroxycyclohexyl)methyl]-3-methoxybenzamide] | 1600 |
| O=C(NC(c1cccc(F)c1Cl)[C@]1(O)CC[C@@H](F)CC1)c1nc(C(F)(F)F)ccc1Cl (single isomer, unassigned) [Compound 290, 3-chloro-N-[(2-chloro-3-fluorophenyl)(cis-4-fluoro-1-hydroxycyclohexyl)methyl]-6-(trifluoromethyl)pyridine-2-carboxamide] | 900 |
